Results on three compounds are retold here after patent US12257070B2, “Pain assessment method based on deep learning model and analysis device” (NEUROGRIN INC., priority 2019, dated 2025).

One assay deals with formalin-induced pain. The settings on record: FIG. 10A.
Assay [1] concerns cerebellar Bergmann glial cells. The assay is described as follows: pain assessment using the activity of cerebellar Bergmann glial cells. Format: in vivo. The settings on record: Bergmann glial cell activity image, cerebellar region; FIG. 13B. The text has this: The researcher analyzed pain assessments based on areas of a brain other than cortical nerve cells. Pain assessment results using cerebellar Bergmann glial cells will be described below. Bergmann glial cells are a type of glial cell as described above. In this case, the deep learning model must be trained in advance with an image showing the activity of Bergmann glial cells of the cerebellum (e.g., a two-photon microscope image of a cerebellar region). The training data may be a two-photon microscope image of a cerebellar region and pain information (normal state or pain state) at the time of generating a corresponding image. The experimental results below are the results of the analysis device inputting individual cell activity values into the average value-based neural network model.
FIG. 13 is a result of assessing pain using the activity of cerebellar Bergmann glial cells. […] The assessment time for capsaicin was a total of 30 minutes, and the activity was assessed for 10 minutes at the time of administration and was further assessed for 10 minutes before and after administration. […] The reference state (Vehicle) is a state in which capsaicin is not injected. Referring to FIG. 13B, it can be seen that the pain assessment result is distinguished as a pain state for about 10 minutes after capsaicin injection. […]

The test system of a further assay is capsaicin-induced pain. The assay can be described thus: capsaicin-induced pain assessed by deep learning model from images of cortical nerve cells. The settings on record: capsaicin pain state compared to before administration and after pain has subsided; model trained with formalin pain data; FIG. 11A. Format: in vivo, mouse. The text has this:
FIG. 11 is an analysis result for capsaicin-induced pain. FIG. 11 is a result of applying a deep learning model trained with formalin pain data to other pain causes. […] FIG. 11B is an ROC curve showing pain classification performance for FIG. 11A. It can be seen from the ROC curve that the AUC value is 0.93, which is a reliable level.

Excerpt for formalin-induced pain: The subject animal is a mouse.
The following experimental results are assessment results obtained by inputting an activity value of an individual cell into a neural network constructed using average calcium activity values.
FIG. 10 is divided into baseline (B), early (E), inter (I), late (L), and recovery (R) sections according to time.

Take `C=O` [Formalin, formalin]: the “predicted pain probability (formalin pain)” value with formalin-induced pain (formalin 5% or 1%, sections baseline, early, inter, late, recovery) is reported as “appears only in E (early phase)”.
With `COc1cc(CNC(=O)CCCC/C=C/C(C)C)ccc1O` [capsaicin], the “time distinguished as a pain state after capsaicin injection” value in assay [1] is “about 10 minutes”. In the assay on capsaicin-induced pain, the predicted pain probability entry is listed as “higher”.
As for `CCN(CC)CC(=O)Nc1c(C)cccc1C` [lidocaine], in the assay with formalin-induced pain (analgesic given in addition to a high concentration (5%) of formalin), the predicted pain probability entry is “little pain”.
